US20180116220A1, “NOVEL TRIAZOLE DERIVATIVES” (BAYER CROPSCIENCE AKTIENGESELLSCHAFT, priority 2015, published 2018)
Marks after values point to notes of the source that are not given here.

What was measured:
[1] = LogP by HPLC on reversed phase columns (EEC directive 79/831 Annex V.A8); assay type: physicochemical; conditions: for chromatographic logP: reversed phase HPLC column
Description: [table] If more than one LogP value is available within the same method, all the values are given and separated by “+”. […] Lambda-max-values were determined using UV-spectra from 200 nm to 400 nm and the peak values of the chromatographic signals. Measurement of LogP values was performed as outlined above.

Phakopsora pachyrhizi = experiment: Example S: in vivo preventive Phakopsora test (soybeans); comparison vs. known compounds; conditions: rate of application 5 ppm, evaluated 7 days after inoculation
Description: The test is evaluated 7 days after the inoculation.

Venturia inaequalis = experiment: Example R: in vivo preventive Venturia test (apples); comparison vs. known compounds; conditions: rate of application 10 ppm, evaluated 10 days after inoculation
Description: • Solvent: 24.5 parts by weight of acetone • 24.5 parts by weight of dimethylacetamide • Emulsifier: 1 part by weight of alkylaryl polyglycol ether
After the spray coating has dried on, the plants are inoculated with an aqueous conidia suspension of the causal agent of apple scab (Venturia inaequalis) and then remain for 1 day in an incubation cabinet at approximately 20° C. and a relative atmospheric humidity of 100%.
The plants are then placed in a greenhouse at approximately 21° C. and a relative atmospheric humidity of approximately 90%.
The test is evaluated 10 days after the inoculation.

[2] = [a] LC-UV, acidic range, 0.1% formic acid in water and acetonitrile as eluent
[3] = [b] LC-UV, neutral range, 0.001 molar ammonium acetate solution in water and acetonitrile as eluent

Row | Compound | LogP [1, 2] | LogP [1, 3] | also measured
1 | OC(Cn1cncn1)(c1ccc(F)cc1F)C1(Oc2ccc(Cl)cc2)CC1 (centres unmarked) [Example I-10, 1-[1-(4-chlorophenoxy)cyclopropyl]-1-(2,4-difluorophenyl)-2-(1H-1,2,4-triazol-1-yl)ethanol] | – | – | chromatographic logP [1, 2]: 3.48; Efficacy in % (Phakopsora pachyrhizi): 95%; Efficacy in % (Venturia inaequalis): 100%
2 | O=C(c1ccc(F)cc1F)C1(Oc2ccc(Br)cc2)CC1 [IV-1, [1-(4-bromophenoxy)cyclopropyl](2,4-difluorophenyl)methanone] | – | – | chromatographic logP [1, 2]: 4.32
3 | O=C(c1ccc(F)cc1F)C1(Oc2ccc(Cl)cc2)CC1 [IV-2] | 4.22^[a] | – | –
4 | O=C(c1ccc(F)cc1F)C1(Oc2ccc(Cl)cc2F)CC1 [IV-3] | 4.23 | 4.24 | –
5 | O=C(c1ccc(F)cc1F)C1(Oc2ccc(F)cc2Cl)CC1 [IV-4] | 4.21^[a]; 4.21^[b] | 4.21^[a]; 4.21^[b] | –
6 | O=C(c1ccc(F)cc1F)C1(Oc2ccccc2F)CC1 [IV-5] | 3.73^[a] | – | –
7 | O=C(c1ccc(F)cc1F)C1(Oc2ccccc2Br)CC1 [IV-6] | 4.14 | 4.19 | –
8 | O=C(c1ccc(F)cc1F)C1(Oc2cccc(Br)c2)CC1 [IV-7] | 4.32 | 4.36 | –
9 | O=C(c1ccc(F)cc1F)C1(Oc2ccccc2I)CC1 [IV-8] | 4.35 | 4.40 | –
10 | O=C(c1ccc(F)cc1F)C1(Oc2cccc(I)c2)CC1 [IV-9] | 4.50 | 4.53 | –
11 | O=C(c1ccc(F)cc1F)C1(Oc2ccc(I)cc2)CC1 [IV-10] | 4.54 | 4.57 | –
12 | O=C(c1ccc(F)cc1F)C1(Oc2ccc(Br)cc2F)CC1 [IV-11] | 4.33 | 4.36 | –
13 | Cc1cc(I)ccc1OC1(C(=O)c2ccc(F)cc2F)CC1 [IV-12] | 5.06 | 5.08 | –
14 | N#Cc1cc(I)ccc1OC1(C(=O)c2ccc(F)cc2F)CC1 [IV-13] | 3.90 | 3.92 | –
15 | Cc1cc(Br)ccc1OC1(C(=O)c2ccc(F)cc2F)CC1 [IV-14] | 4.88 | 4.87 | –
16 | O=C(c1ccc(F)cc1F)C1(Oc2ccc(OC(F)(F)F)cc2)CC1 [IV-15] | 4.49 | 4.53 | –
17 | O=C(c1ccc(F)cc1F)C1(Oc2ccc(SC(F)(F)F)cc2)CC1 [IV-16] | 4.86 | 4.92 | –
18 | O=C(c1ccc(F)cc1F)C1(Oc2c(F)cccc2F)CC1 [IV-17] | 3.87^[a] | – | –
19 | O=C(c1ccc(F)cc1F)C1(Oc2c(Cl)cccc2Cl)CC1 [IV-18] | 4.59^[a] | – | –
20 | O=C(c1ccc(F)cc1F)C1(Oc2c(F)cccc2Cl)CC1 [IV-19] | 4.26^[a] | – | –
21 | O=C(c1ccc(F)cc1F)C1(Oc2c(F)cccc2Br)CC1 [IV-20] | 4.34^[a] | – | –
22 | O=C(c1ccc(Cl)cc1F)C1(Oc2ccc(Cl)cc2)CC1 [IV-21] | 4.75^[a] | – | –
23 | O=C(c1ccc(Cl)cc1F)C1(Oc2ccc(Cl)cc2F)CC1 [IV-22] | 4.72^[a] | – | –
24 | O=C(c1ccc(F)cc1F)C1(Oc2ccc(C(F)(F)F)cc2)CC1 [IV-23] | 4.44^[a] | – | –
25 | O=C(c1ccc(F)cc1F)C1(Oc2cccc(Cl)c2)CC1 [IV-24] | 4.34^[a] | – | –
26 | O=C(c1ccc(F)cc1F)C1(Oc2ccc(Cl)c(F)c2)CC1 [IV-25] | 4.41^[a] | – | –
27 | O=C(c1ccc(F)cc1F)C1(Oc2ccc(Br)c(F)c2)CC1 [IV-26] | 3.99^[a] | – | –
28 | O=C(c1ccc(F)cc1F)C1(Oc2ccc(OC(F)F)cc2)CC1 [IV-27] | 3.94^[a] | – | –
29 | O=C(c1ccc(F)cc1F)C1(Oc2cccc(Cl)c2F)CC1 [IV-28] | 4.21^[a] | – | –
